From patent US20130190376A1, “METHODS OF USE OF SMALL MOLECULE MODULATORS OF HEPATOCYTE GROWTH FACTOR (SCATTER FACTOR) ACTIVITY” (priority 2010, published 2013)

What was measured:
[1] = test system: HUVECs; test: Nitric oxide production in endothelial cells (DAF 2-DA fluorescence); type: cell-based, human; conditions: HUVECs incubated 24 hours
Experimental: c. HGF and compounds of the invention stimulate nitric oxide production in endothelial cells. HUVECs are incubated with either vehicle, HGF/SF, instant compounds, or SNAP for 24 hours, loaded with the nitric oxide-sensitive fluorescence indicator DAF 2-DA and imaged under a laser scanning confocal microscope.

[2] = test system: MDCK cells; test: Anti-apoptotic activity in cultured cell lines (adriamycin); type: cell-based; conditions: pretreatment; HUVEC and MDCK cell lines
Excerpt: a. HGF/SF and instant compounds have significant anti-apoptotic activity in cultured cell lines.

[3] = test system: LX2 cells; test: Antifibrotic activity in hepatic stellate cells; type: cell-based, human; conditions: serum starved (activated) LX2 cells
Excerpt: a. Antifibrotic Activity in Hepatic Stellate Cells.

Row | Compound | nitric oxide production (DAF 2-DA fluorescence) [1] | cell viability [2] | collagen I mRNA expression [3]
1 | CC(=O)N[C@@H](C(=O)O)C(C)(C)SN=O (racemic) [SNAP, reference compound] | significant increase in fluorescence | – | –
2 | HGF/SF: Scatter factor, also known as hepatocyte growth factor; pleiotropic growth factor, heparin-binding heterodimeric protein | significant increase in fluorescence | significantly improves the cell viability | decrease in collagen I mRNA expression
